Measured values as given in ChEMBL document CHEMBL4765442, “Anti-Giardia Drug Discovery: Current Status and Gut Feelings” (J Med Chem, 2020).
pIC50: −log10 of the molar value. ≈ marks a conversion by molar mass, not a printed value.

Experiments:
Giardia intestinalis [1] = experiment: Antigiardial activity against metronidazole-resistant Giardia duodenalis WB1B-M3 incubated for 3 days followed by compound wash-out and measured after 4 days; assay type: functional; conditions: time 3 day
Giardia intestinalis [2] = experiment: Antigiardial activity against metronidazole-resistant Giardia duodenalis BRIS/83/HEPU/106-2ID10 incubated for 3 days followed by compound wash-out and measured after 4 days; assay type: functional; conditions: time 3 day
Giardia intestinalis [3] = experiment: Antigiardial activity against Giardia duodenalis BRIS/91/HEPU/1279 incubated for 3 days followed by compound wash-out and measured after 4 days; assay type: functional; conditions: time 3 day
Giardia intestinalis [4] = experiment: Antigiardial activity against Giardia duodenalis BRIS/83/HEPU/106 incubated for 3 days followed by compound wash-out and measured after 4 days; assay type: functional; conditions: time 3 day
Giardia intestinalis [5] = experiment: Antigiardial activity against Giardia intestinalis IMSS:0696:1 incubated for 48 hrs followed by wash out by hemocytometric counting method; assay type: functional, organism-based; conditions: Giardia duodenalis, IMSS:0696:1, 48 h
Giardia intestinalis [6] = experiment: Antigiardial activity against Giardia intestinalis WB ATCC 30957 incubated for 72 hrs by hemocytometric counting method; assay type: functional, organism-based; conditions: Giardia duodenalis, WB ATCC 30957, 72 h
Giardia intestinalis [7] = experiment: Antigiardial activity against metronidazole-resistant Giardia duodenalis 106-2ID10; assay type: functional
Giardia intestinalis [8] = experiment: Antigiardial activity against metronidazole-resistant Giardia duodenalis WB-M3; assay type: functional
Giardia intestinalis [9] = experiment: Antigiardial activity against metronidazole-resistant Giardia duodenalis 713-M3; assay type: functional
Giardia intestinalis [10] = experiment: Antigiardial activity against Giardia duodenalis WBC6 trophozoites incubated for 72 hrs under anaerobic condition by resazurin-dye based fluorimetry; assay type: functional, organism-based; conditions: WBC6, 72 h
Giardia intestinalis [11] = experiment: Antigiardial activity against Giardia duodenalis WBC6 trophozoites incubated for 48 hrs under microaerophilic condition by methylene blue colorimetric assay; assay type: functional, organism-based; conditions: WBC6, 48 h
Giardia intestinalis [12] = experiment: Growth inhibition of Giardia duodenalis isolate 14-03/F7 measured after 24 hrs by resazurin based assay; assay type: functional, organism-based; conditions: isolate 14-03/F7, 24 h
Giardia intestinalis [13] = experiment: Antigiardial activity against Giardia lamblia WB (ATCC 30957) incubated for 3 days by [3H]thymidine incorporation based assay; assay type: functional, organism-based; conditions: Giardia duodenalis
Giardia intestinalis [14] = experiment: Antigiardial activity against Giardia duodenalis Ac1 incubated for 3 days by fluorescence method; assay type: functional, organism-based; conditions: Ac1, 72 h
Giardia intestinalis [15] = experiment: Antigiardial activity against Giardia duodenalis WB (ATCC 30957) incubated for 3 days by fluorescence method; assay type: functional, organism-based; conditions: WB ATCC 30957, 72 h
Giardia intestinalis [16] = experiment: Antigiardial activity against Giardia duodenalis Ec1 incubated for 3 days by fluorescence method; assay type: functional, organism-based; conditions: Ec1, 72 h
[17] = Half-life of the compound; assay type: physicochemical
Giardia intestinalis [18] = experiment: Antigiardial activity against Giardia duodenalis Ah1 incubated for 3 days by fluorescence method; assay type: functional, organism-based; conditions: Ah1, 72 h
Giardia intestinalis [19] = experiment: Antigiardial activity against Giardia duodenalis Ah2 incubated for 3 days by fluorescence method; assay type: functional, organism-based; conditions: Ah2, 72 h
Giardia intestinalis [20] = experiment: Antigiardial activity against Giardia duodenalis G1 incubated for 3 days by fluorescence method; assay type: functional, organism-based; conditions: G1, 72 h
Giardia intestinalis [21] = experiment: Antigiardial activity against Giardia duodenalis Ec2 incubated for 3 days by fluorescence method; assay type: functional, organism-based; conditions: Ec2, 72 h
Giardia intestinalis [22] = experiment: Antigiardial activity against Giardia duodenalis GS/M-83-H7 (ATCC 50581) incubated for 3 days by fluorescence method; assay type: functional, organism-based; conditions: 72 h
Giardia intestinalis [23] = experiment: Antigiardial activity against Giardia duodenalis Ac2 incubated for 3 days by fluorescence method; assay type: functional, organism-based; conditions: Ac2, 72 h
[24] = Selectivity ratio of CC50 for human HeLa cells incubated for 2 days by alamarBlue reagent to IC50 for Giardia lamblia BRIS/87/HEPU/713 measured after 48 hrs by BacTiter-Glo cell viability assay; assay type: toxicity; conditions: read-out: Ratio CC50/IC50
Giardia intestinalis [25] = experiment: Antimicrobial activity against Giardia lamblia BRIS/87/HEPU/713 trophozoites measured after 48 hrs by BacTiter-Glo cell viability assay; assay type: functional, organism-based; conditions: Giardia duodenalis, BRIS/87/HEPU/713, 48 h
Giardia intestinalis [26] = experiment: Antigiardial activity against Giardia lamblia WB incubated for 48 hrs by haemocytometric counting method; assay type: functional; conditions: Giardia duodenalis, read-out: LD50 (the source's name)
Giardia intestinalis [27] = experiment: Antigiardial activity against nitazoxanide resistant Giardia lamblia N1-INP incubated for 48 hrs by haemocytometric counting method; assay type: functional; conditions: Giardia duodenalis, read-out: LD50 (the source's name)
Giardia intestinalis [28] = experiment: Antigiardial activity against drug susceptible Giardia lamblia incubated for 48 hrs by haemocytometric counting method; assay type: functional; conditions: Giardia duodenalis, read-out: LD50 (the source's name)
Giardia intestinalis [29] = experiment: Antimicrobial activity against Giardia lamblia BRIS/83/HEPU/106 trophozoites measured after 2 days by BacTiter-Glo cell viability assay; assay type: functional, organism-based; conditions: Giardia duodenalis, BRIS/83/HEPU/106, 48 h
Giardia intestinalis [30] = experiment: Antimicrobial activity against Giardia lamblia 713M3 trophozoites measured after 2 days by BacTiter-Glo cell viability assay; assay type: functional, organism-based; conditions: Giardia duodenalis, 713M3, 48 h
[31] = Selectivity ratio of EC50 for Giardia lamblia WB-M2 trophozoites to EC50 for Giardia lamblia BRIS/87/HEPU/713 trophozoites; assay type: functional
[32] = Selectivity ratio of EC50 for Giardia lamblia 713-M3 trophozoites to EC50 for Giardia lamblia BRIS/87/HEPU/713 trophozoites; assay type: functional
[33] = Selectivity ratio of CC50 for human HeLa cells incubated for 2 days by alamarBlue reagent to IC50 for Giardia lamblia WB-M2 measured after 48 hrs by BacTiter-Glo cell viability assay; assay type: toxicity; conditions: time 2 day, read-out: Ratio CC50/IC50
Giardia intestinalis [34] = experiment: Antimicrobial activity against Giardia lamblia WB-M2 trophozoites measured after 2 days by BacTiter-Glo cell viability assay; assay type: functional, organism-based; conditions: Giardia duodenalis, WB-M2, 48 h
[35] = Selectivity ratio of CC50 for human HeLa cells incubated for 2 days by alamarBlue reagent to IC50 for Giardia lamblia 713M3 measured after 48 hrs by BacTiter-Glo cell viability assay; assay type: toxicity; conditions: read-out: Ratio CC50/IC50
[36] = Selectivity ratio of CC50 for human HeLa cells incubated for 2 days by alamarBlue reagent to IC50 for Giardia lamblia BRIS/83/HEPU/106 measured after 48 hrs by BacTiter-Glo cell viability assay; assay type: toxicity; conditions: read-out: Ratio CC50/IC50

CN1CC/C(=C\c2ncc([N+](=O)[O-])n2C)C1=O
MLC (Giardia intestinalis [1]): 10 µM (≈ 2.36 µg/mL) | MLC (Giardia intestinalis [2]): 5 µM (≈ 1.18 µg/mL) | MLC (Giardia intestinalis [3]): 1 µM (≈ 0.236 µg/mL) | MLC (Giardia intestinalis [4]): 1 µM (≈ 0.236 µg/mL)

Cc1ncc([N+](=O)[O-])n1CCOC(=O)Nc1ccc(Cl)cc1
pIC50 (Giardia intestinalis [5]): 6.30

Cc1ncc([N+](=O)[O-])n1CCN1CCN(c2ccnc3cc(Cl)ccc23)CC1
pIC50 (Giardia intestinalis [6]): 6.01

Cn1c(-c2ccc3c(c2)OCO3)cnc1/C=C/c1ncc([N+](=O)[O-])n1C
MIC (Giardia intestinalis [7]): 1 µM (≈ 0.353 µg/mL) | MIC (Giardia intestinalis [8]): 1 µM (≈ 0.353 µg/mL) | MIC (Giardia intestinalis [9]): 0.5 µM (≈ 0.177 µg/mL)

O=[N+]([O-])c1ccc(SCCCCCCO)c2nonc12
pIC50 (Giardia intestinalis [10]): 6.22 | pIC50 (Giardia intestinalis [11]): 6.52

CCCCCCCCCCC[C@@H](C[C@@H]1OC(=O)[C@H]1CCCCCC)OC(=O)[C@H](CC(C)C)NC=O [ORLISTAT]
pIC50 (Giardia intestinalis [12]): 5.55

CCS(=O)(=O)CCn1c([N+](=O)[O-])cnc1C [TINIDAZOLE]
pIC50 (Giardia intestinalis [13]): 6.52 | pIC50 (Giardia intestinalis [14]): 6.52 | pIC50 (Giardia intestinalis [15]): 6.52 | pIC50 (Giardia intestinalis [16]): 6.52 | half-life [17]: 12 h | pIC50 (Giardia intestinalis [18]): 6.52 | pIC50 (Giardia intestinalis [19]): 6.52 | pIC50 (Giardia intestinalis [20]): 6.52 | pIC50 (Giardia intestinalis [21]): 6.52 | pIC50 (Giardia intestinalis [22]): 6.52 | pIC50 (Giardia intestinalis [23]): 6.52

Cc1ncc([N+](=O)[O-])n1CC(C)OC(=O)Nc1ccccc1 (configuration not stated)
pIC50 (Giardia intestinalis [5]): 6.30

Cc1ncc([N+](=O)[O-])n1CCOC(=O)NC1CCCCC1
pIC50 (Giardia intestinalis [5]): 6.30

CCCSc1ccc2nc(NC(=O)OC)[nH]c2c1 [ALBENDAZOLE]
pIC50 (Giardia intestinalis [14]): 7.26 | pIC50 (Giardia intestinalis [15]): 7.26 | pIC50 (Giardia intestinalis [16]): 7.26 | half-life [17]: 8 h | pIC50 (Giardia intestinalis [18]): 7.26 | pIC50 (Giardia intestinalis [19]): 7.26 | pIC50 (Giardia intestinalis [20]): 7.26 | pIC50 (Giardia intestinalis [21]): 7.26 | pIC50 (Giardia intestinalis [22]): 7.26 | pIC50 (Giardia intestinalis [23]): 7.26

Cc1ncc([N+](=O)[O-])n1CCOC(=O)Nc1ccc([N+](=O)[O-])cc1
pIC50 (Giardia intestinalis [5]): 6.30

Cc1ncc([N+](=O)[O-])n1CCOC(=O)Nc1ccccc1
pIC50 (Giardia intestinalis [5]): 6.30

CC(=O)c1ccc(-c2cn(CCn3c([N+](=O)[O-])cnc3/C=C/c3ccco3)nn2)cc1
selectivity ratio at 48 h [24]: > 16800 | pIC50 (Giardia intestinalis [25]): 8.52

COc1ccc2[nH]c([S+]([O-])Cc3ncc(C)c(OC)c3C)nc2c1 (configuration not stated) [OMEPRAZOLE]
LC50 (Giardia intestinalis [26]): 116 nM | LC50 (Giardia intestinalis [27]): 544 nM | LC50 (Giardia intestinalis [28]): 116 nM

CN(Cc1ccccc1)Cc1cn(CCCCCC(=O)Nc2ncc([N+](=O)[O-])s2)nn1
selectivity ratio at 48 h [24]: > 500 | pIC50 (Giardia intestinalis [29]): 7.00 | pIC50 (Giardia intestinalis [30]): 7.00 | Ratio EC50 [31]: 65 | Ratio EC50 [32]: 20 | selectivity ratio at 48 h [33]: > 8 | pIC50 (Giardia intestinalis [34]): 5.19 | pIC50 (Giardia intestinalis [25]): 7.00 | selectivity ratio at 48 h [35]: > 8 | selectivity ratio at 48 h [36]: > 8
